Assays:
[1] = biological target: T1, DNMT3B/3L (Homo sapiens, UniProt Q9UBC3); assay: Epigenetic panel (BPS Bioscience); type: biochemical
T1 construct: purchased BPS Bioscience (contracted assay service)
Summary of the method: (§1)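 CM-444 and CM-1758 were profiled against a broad epigenetic panel of demethylases, methyltransferases, bromodomains and other enzymes. Each was tested at a single concentration of 10 μM, in duplicate.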

[2] = biological target: T2, EZH2 (P132S) (Homo sapiens, UniProt Q15910, P132S); assay: Epigenetic panel (BPS Bioscience); type: biochemical
T2 construct: purchased BPS Bioscience; Eurofins (HDAC4, 5, 7-11)
Summary of the method: as §1

[3] = biological target: T3, EZH2 (Y641C) (Homo sapiens, UniProt Q15910, Y641C); assay: Epigenetic panel (BPS Bioscience); type: biochemical
T3 construct: purchased BPS Bioscience; Eurofins (HDAC4, 5, 7-11)
Summary of the method: as §1

[4] = biological target: T4, EZH2 (Y641S) (Homo sapiens, UniProt Q15910, Y641S); assay: Epigenetic panel (BPS Bioscience); type: biochemical
T4 construct: purchased BPS Bioscience; Eurofins (HDAC4, 5, 7-11)
Summary of the method: as §1

[5] = biological target: T5, JMJD1B (Homo sapiens, UniProt Q7LBC6); assay: Epigenetic panel (BPS Bioscience); type: biochemical
T5 construct: purchased BPS Bioscience; Eurofins (HDAC4, 5, 7-11)
Summary of the method: as §1

[6] = biological target: T6, JMJD3 (Homo sapiens, UniProt O15054); assay: Epigenetic panel (BPS Bioscience); type: biochemical
T6 construct: purchased BPS Bioscience; Eurofins (HDAC4, 5, 7-11)
T6 sequence (O15054 whole entry): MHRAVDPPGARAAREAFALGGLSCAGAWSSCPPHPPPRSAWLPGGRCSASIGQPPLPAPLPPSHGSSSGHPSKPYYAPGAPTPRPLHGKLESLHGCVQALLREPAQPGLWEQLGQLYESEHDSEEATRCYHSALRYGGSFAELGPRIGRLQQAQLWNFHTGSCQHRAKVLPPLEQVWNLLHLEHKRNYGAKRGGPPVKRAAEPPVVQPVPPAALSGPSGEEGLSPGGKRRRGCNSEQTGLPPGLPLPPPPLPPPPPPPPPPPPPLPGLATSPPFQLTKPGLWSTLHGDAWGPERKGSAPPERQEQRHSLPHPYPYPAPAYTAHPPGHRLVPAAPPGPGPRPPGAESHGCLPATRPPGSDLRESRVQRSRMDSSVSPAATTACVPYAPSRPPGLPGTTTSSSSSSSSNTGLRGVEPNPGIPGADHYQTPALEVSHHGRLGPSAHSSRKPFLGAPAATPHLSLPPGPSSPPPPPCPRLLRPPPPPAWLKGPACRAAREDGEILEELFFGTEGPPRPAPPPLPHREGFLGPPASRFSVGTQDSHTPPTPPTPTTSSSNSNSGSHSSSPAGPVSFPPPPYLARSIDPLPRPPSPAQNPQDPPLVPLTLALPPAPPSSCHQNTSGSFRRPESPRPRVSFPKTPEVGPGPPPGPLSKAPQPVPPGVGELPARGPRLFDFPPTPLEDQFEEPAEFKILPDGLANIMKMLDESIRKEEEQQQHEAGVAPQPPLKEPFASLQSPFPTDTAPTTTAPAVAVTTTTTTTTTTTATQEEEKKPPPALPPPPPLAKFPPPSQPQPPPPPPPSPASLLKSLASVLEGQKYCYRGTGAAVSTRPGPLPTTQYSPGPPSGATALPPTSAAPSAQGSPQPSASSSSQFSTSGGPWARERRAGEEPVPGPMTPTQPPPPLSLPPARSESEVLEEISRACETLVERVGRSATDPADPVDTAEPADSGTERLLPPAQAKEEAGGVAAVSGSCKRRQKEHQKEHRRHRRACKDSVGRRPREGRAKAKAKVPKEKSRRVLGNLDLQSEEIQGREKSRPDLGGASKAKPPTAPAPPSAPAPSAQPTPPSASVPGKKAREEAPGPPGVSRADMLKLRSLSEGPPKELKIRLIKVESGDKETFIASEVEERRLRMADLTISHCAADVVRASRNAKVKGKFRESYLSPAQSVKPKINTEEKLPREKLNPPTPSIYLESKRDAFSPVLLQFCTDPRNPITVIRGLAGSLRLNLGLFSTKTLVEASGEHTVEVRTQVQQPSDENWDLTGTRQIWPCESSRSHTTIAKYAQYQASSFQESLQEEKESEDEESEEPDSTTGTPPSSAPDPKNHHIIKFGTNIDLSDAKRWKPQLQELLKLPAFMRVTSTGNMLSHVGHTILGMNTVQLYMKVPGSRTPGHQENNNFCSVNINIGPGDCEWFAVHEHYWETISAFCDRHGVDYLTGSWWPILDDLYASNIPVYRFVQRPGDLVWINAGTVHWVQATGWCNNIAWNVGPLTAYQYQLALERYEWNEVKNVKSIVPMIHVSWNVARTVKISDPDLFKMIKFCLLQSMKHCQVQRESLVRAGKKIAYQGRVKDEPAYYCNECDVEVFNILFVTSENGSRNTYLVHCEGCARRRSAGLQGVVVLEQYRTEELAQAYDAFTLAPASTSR
Summary of the method: as §1

[7] = biological target: T7, LSD2 (Homo sapiens, UniProt Q8NB78); assay: Epigenetic panel (BPS Bioscience); type: biochemical
T7 construct: purchased BPS Bioscience; Eurofins (HDAC4, 5, 7-11)
Summary of the method: as §1

[8] = biological target: T8, PRMT8 (Homo sapiens, UniProt Q9NR22); assay: Epigenetic panel (BPS Bioscience); type: biochemical
T8 construct: purchased BPS Bioscience; Eurofins (HDAC4, 5, 7-11)
Summary of the method: as §1

[9] = biological target: T9, PRMT9 (Homo sapiens, UniProt Q6P2P2); assay: Epigenetic panel (BPS Bioscience); type: biochemical; details: for inhibition at 10 µM: read-out: % of inhibition
T9 sequence (Q6P2P2 1-845): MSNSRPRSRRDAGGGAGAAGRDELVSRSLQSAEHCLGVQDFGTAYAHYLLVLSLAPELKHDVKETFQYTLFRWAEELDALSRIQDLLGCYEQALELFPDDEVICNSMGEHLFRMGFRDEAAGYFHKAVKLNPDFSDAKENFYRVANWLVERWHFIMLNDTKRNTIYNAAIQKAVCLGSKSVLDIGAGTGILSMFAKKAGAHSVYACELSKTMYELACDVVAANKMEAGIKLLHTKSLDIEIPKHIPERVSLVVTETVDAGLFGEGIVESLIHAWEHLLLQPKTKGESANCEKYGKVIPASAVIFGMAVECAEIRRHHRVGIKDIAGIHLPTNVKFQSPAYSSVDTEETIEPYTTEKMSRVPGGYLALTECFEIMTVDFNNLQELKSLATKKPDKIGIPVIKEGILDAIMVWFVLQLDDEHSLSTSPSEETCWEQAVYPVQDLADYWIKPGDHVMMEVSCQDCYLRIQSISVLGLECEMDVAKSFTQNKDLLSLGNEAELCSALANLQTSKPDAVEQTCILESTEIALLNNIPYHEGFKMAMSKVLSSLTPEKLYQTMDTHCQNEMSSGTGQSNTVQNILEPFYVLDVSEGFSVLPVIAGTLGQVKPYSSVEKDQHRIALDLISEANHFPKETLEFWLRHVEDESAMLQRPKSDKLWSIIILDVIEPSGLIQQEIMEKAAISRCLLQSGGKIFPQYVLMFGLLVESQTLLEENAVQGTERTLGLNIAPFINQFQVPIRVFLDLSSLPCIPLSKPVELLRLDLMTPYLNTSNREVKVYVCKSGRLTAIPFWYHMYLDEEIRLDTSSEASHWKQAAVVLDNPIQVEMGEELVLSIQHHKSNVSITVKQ
Summary of the method: as §1

[10] = biological target: T10, SETD2 (Homo sapiens, UniProt Q9BYW2); assay: Epigenetic panel (BPS Bioscience); type: biochemical
T10 construct: purchased BPS Bioscience; Eurofins (HDAC4, 5, 7-11)
T10 sequence (Q9BYW2 whole entry): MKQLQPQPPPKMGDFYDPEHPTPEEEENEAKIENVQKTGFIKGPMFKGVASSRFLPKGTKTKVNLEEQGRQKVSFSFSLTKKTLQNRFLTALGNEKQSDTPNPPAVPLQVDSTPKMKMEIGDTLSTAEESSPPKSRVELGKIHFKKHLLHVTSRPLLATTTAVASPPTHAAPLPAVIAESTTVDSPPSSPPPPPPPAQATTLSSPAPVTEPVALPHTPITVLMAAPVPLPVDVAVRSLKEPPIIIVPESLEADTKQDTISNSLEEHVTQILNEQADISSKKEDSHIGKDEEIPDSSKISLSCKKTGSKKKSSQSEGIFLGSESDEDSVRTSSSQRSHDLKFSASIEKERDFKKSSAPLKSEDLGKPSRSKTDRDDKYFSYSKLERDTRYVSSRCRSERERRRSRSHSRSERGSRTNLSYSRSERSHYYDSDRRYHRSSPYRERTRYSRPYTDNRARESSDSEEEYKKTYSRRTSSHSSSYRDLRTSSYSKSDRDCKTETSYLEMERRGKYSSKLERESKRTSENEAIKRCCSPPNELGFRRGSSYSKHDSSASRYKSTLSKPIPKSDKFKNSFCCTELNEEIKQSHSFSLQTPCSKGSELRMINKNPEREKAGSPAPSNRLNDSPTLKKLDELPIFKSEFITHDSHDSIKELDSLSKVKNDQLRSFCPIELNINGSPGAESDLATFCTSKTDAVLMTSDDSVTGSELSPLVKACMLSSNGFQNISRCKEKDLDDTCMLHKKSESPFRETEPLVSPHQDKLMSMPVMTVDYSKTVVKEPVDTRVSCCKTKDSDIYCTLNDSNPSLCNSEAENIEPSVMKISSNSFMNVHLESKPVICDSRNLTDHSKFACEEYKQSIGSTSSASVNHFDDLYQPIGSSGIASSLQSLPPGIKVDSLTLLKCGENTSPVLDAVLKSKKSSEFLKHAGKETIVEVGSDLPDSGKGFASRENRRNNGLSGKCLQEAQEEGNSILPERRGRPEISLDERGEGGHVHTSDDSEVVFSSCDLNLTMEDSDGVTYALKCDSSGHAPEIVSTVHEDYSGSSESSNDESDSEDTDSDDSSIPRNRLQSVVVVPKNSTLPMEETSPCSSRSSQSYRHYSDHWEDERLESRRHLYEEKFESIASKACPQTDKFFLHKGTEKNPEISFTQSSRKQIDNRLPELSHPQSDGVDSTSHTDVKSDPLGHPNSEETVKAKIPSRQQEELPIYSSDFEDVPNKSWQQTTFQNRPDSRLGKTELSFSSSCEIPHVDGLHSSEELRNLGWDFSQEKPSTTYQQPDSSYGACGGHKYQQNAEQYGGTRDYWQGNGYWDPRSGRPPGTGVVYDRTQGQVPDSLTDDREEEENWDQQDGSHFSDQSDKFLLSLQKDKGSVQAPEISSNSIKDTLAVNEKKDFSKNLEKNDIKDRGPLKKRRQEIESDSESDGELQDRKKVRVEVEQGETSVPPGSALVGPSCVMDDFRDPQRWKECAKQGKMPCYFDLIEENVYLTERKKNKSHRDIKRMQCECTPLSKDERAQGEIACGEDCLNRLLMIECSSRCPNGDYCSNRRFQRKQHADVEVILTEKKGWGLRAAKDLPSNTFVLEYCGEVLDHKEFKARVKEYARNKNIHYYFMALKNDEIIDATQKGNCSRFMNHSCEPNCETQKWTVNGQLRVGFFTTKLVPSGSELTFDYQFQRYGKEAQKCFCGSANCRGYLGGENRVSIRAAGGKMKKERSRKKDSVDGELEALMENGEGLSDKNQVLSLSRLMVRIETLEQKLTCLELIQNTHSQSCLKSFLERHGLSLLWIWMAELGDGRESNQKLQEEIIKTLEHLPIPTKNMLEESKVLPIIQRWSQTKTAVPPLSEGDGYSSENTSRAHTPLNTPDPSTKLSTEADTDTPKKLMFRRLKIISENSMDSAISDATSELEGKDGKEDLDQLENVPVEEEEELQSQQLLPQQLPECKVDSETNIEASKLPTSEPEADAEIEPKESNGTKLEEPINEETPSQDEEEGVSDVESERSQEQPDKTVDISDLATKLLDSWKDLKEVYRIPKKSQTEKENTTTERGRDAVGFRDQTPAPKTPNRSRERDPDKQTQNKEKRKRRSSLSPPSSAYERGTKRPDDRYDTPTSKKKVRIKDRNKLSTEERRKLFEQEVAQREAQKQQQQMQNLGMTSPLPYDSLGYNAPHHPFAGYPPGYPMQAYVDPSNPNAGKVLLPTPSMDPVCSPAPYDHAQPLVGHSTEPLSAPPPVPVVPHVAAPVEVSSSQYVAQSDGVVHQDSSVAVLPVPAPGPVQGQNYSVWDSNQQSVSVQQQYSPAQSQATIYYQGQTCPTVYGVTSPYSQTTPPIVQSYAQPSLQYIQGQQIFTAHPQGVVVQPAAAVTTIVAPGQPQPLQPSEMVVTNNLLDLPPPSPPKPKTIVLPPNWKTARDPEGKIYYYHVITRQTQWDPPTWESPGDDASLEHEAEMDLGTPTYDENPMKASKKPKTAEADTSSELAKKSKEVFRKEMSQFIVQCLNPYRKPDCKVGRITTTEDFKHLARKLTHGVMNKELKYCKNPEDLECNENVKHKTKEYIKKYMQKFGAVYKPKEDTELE
Summary of the method: as §1

[11] = biological target: T11, SUV4-20H1 (Homo sapiens, UniProt Q4FZB7); assay: Epigenetic panel (BPS Bioscience); type: biochemical
T11 construct: purchased BPS Bioscience; Eurofins (HDAC4, 5, 7-11)
T11 sequence (Q4FZB7 whole entry): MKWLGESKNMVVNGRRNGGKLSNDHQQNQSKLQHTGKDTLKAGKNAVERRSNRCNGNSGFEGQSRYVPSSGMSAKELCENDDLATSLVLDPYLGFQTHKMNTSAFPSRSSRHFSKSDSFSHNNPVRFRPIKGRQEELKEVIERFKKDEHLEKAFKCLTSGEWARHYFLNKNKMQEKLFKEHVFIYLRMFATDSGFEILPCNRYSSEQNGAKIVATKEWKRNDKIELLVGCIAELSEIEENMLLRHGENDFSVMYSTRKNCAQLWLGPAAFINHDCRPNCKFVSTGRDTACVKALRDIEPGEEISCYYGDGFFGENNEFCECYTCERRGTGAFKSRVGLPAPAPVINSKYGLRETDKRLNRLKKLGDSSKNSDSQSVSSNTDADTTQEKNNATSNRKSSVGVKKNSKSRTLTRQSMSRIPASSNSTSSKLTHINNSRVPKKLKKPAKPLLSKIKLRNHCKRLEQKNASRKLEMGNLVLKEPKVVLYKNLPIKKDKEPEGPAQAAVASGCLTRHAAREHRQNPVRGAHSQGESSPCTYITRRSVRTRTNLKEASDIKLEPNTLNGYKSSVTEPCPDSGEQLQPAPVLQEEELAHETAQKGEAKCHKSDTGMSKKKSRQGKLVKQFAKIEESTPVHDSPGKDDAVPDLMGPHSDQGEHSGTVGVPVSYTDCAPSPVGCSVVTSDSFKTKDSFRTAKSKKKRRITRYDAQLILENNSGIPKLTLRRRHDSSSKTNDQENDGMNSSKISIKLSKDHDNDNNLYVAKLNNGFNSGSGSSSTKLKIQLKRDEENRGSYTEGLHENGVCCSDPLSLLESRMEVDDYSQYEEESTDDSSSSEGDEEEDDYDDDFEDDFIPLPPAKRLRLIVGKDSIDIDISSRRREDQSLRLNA
Summary of the method: as §1

[12] = system: global 5-methylcytosine levels in HL-60, ML-2, MV4-11 and MOLM-13 cell lines; assay: Dot blot; type: cell-based, human; details: HL-60, 270 nM CM-444 or 300 nM CM-1758, 48 h
Experimental: DNA purity and concentration were measured using a NanoDrop spectrophotometer (Thermo Scientific). A 500 ng amount of genomic DNA was loaded onto a nitrocellulose membrane (Amersham Hybond_N+, RPN203B, GE Healthcare), pre-wetted in 6X SSC for 10 min, using the Bio-Dot microfiltration apparatus (Cat No 170-6545, Bio-Rad) following the manufacturer’s instructions. Next, the membrane was incubated with 2X SSC for 5 min and cross-linked for 2 h at 80 °C. The membrane, after being blocked with Tropix I-block blocking reagent (Cat No AI300, Tropix) in PBS with 0.1% Tween 20 and 0.02 NaN3, was incubated with the primary antibody against 5-methylcytosine (monoclonal antibody 5-methylcytidine, Cat No BI-MECY-1000, Eurogentec) diluted 1:4000 o/n at 4 °C and then with alkaline phosphatase-conjugated secondary antibody. […] To ensure equal loading of total DNA on the membrane, the same blot was stained with 0.02% methylene blue in 0.3 M sodium acetate (pH 5.2).

Molecule `COc1cc2nc(-c3ccc(C)o3)cc(NCC3CCN(c4ncc(C(=O)NO)cn4)CC3)c2cc1OC` [CM-444, 2-[4-[[[6,7-dimethoxy-2-(5-methyl-2-furyl)-4-quinolyl]amino]methyl]-1-piperidyl]pyrimidine-5-carbohydroxamic acid] has an IC50 [1] of 2.3 µM, an inhibition at 10 µM [1] of 68% and an inhibition at 10 µM [2] of 0%. The inhibition at 10 µM [3] was 4%, the inhibition at 10 µM [4] was 4% and the inhibition at 10 µM [5] was 6%. For the same molecule, the inhibition at 10 µM [6] was 21%, the inhibition at 10 µM [7] was 21% and the inhibition at 10 µM [8] was 0%. For the same molecule, the IC50 [9] was 19.2 µM, the inhibition at 10 µM [9] was 76% and the inhibition at 10 µM [10] was 0%. For the same molecule, the inhibition at 10 µM [11] was 2% and the “5mC level (dot blot)” value [12] was “no changes”.
`COc1cc2nc(-c3cc(C)oc3C)cc(NCC3CCN(c4ncc(C(=O)NO)cn4)CC3)c2cc1OC` [CM-1758, 2-[4-[[[2-(2,5-dimethyl-3-furyl)-6,7-dimethoxy-4-quinolyl]amino]methyl] -1-piperidyl]pyrimidine-5-carbohydroxamic acid] was tested, and the inhibition at 10 µM [1] was 20%, the inhibition at 10 µM [2] was 0% and the inhibition at 10 µM [3] was 0%. It also gave an inhibition at 10 µM [4] of 24%, an inhibition at 10 µM [5] of 11% and an inhibition at 10 µM [6] of 20%. The inhibition at 10 µM [7] was 22%, the inhibition at 10 µM [8] was 0% and the IC50 [9] was 22.7 µM. The inhibition at 10 µM [9] was 52%, the inhibition at 10 µM [10] was 11% and the inhibition at 10 µM [11] was 1%. For the same molecule, the “5mC level (dot blot)” value [12] was “no changes”.

Reference: publication PMC11219871, “Epigenetic-based differentiation therapy for Acute Myeloid Leukemia” (Nature Communications, 2024)
